Assay results published in patent US20100179344A1, “2-Alkylidene-18,19-Dinor-Vitamin D Compounds” (WISCONSIN ALUMNI RESEARCH FOUNDATION, priority 2004, published 2010).

Legend:
[1] = tested on: HL-60 cells; assay: HL-60 cell differentiation (NBT reduction); format: cell-based, human; conditions: FIG. 2; for percent of HL-60 cells induced to differentiate: NBT assay, concentration 1×10^−7M
Description: The differentiation of HL-60 promyelocytic into monocytes was determined as described by Ostrem et al (J. Biol. Chem. 262, 14164-14171, 1987).
The study drugs were dissolved in ethanol and the concentrations determined using UV spectrophotometry (2MD:molar extinction coefficient=42,000 and Imax=252 nm; 1,25(OH)2D3:molar extinction=18,200 and Imax=265 nm). Serial dilutions were prepared so that a range of drug concentrations could be tested without changing the final concentration of ethanol (<0.2%) present in the cell cultures.
Human promyelocytic leukemia (HL60) cells were grown in RPMI-1640 medium containing 10% fetal bovine serum. The cells were incubated at 37° C. in the presence of 5% CO2.
HL60 cells were plated at 1.2×10^5 cells/ml. Eighteen hours after plating, the cells were administered the drug in ethanol. Four days post-dose, the cells were harvested and a nitro blue tetrazolium reduction assay was performed (Collins et al., 1979; J. Exp. Med. 149:969-974, Appendix A). The percentage of differentiated cells was determined by counting a total of 200 cells and recording the number that contained intracellular black-blue formazan deposits. Verification of differentiation to monocytic cells was determined by measuring phagocytic activity (data not shown). All drug concentrations were tested in duplicate.
This is illustrated by the biological assay results obtained for (20S)-2-methylene-18,19-dinor-1α,25-dihydroxy-vitamin D3 which is summarized in FIGS. 2 through 6. […] Differentiation activity was assessed by a standard differentiation assay, abbreviated as NBT reduction (nitroblue tetrazolium reduction). The assay was conducted according to known procedures, as given, for example, by DeLuca et al U.S. Pat. No. 4,717,721 and Ostrem et al, J. Biol. Chem. 262, 14164, 1987. For the assay, the differentiation activity of the test compounds is expressed in terms of the percent of HL-60 cells having differentiated to normal cells in response to a given concentration of test compound.

[2] = Bone calcium mobilization (serum calcium); format: in vivo, rat; conditions: male Sprague-Dawley rats, low calcium diet, four intraperitoneal doses; FIGS. 5 and 6
Excerpt: (§1) Weanling, male Sprague-Dawley rats were purchased from Harlan. Upon receipt, the animals were identified by individual tail marks and fed a calcium containing (0.47%) diet (Suda et al., Purified Rodent Diet-Diet 11; Appendix A) for one week before switching to the same diet devoid of calcium (0.02%). Water and a purified rodent diet (Diet 11; Appendix A) containing either 0.47% or 0.02% calcium and 0.3% phosphorus were provided ad libitum. Animals were fed the purified diet containing 0.47% calcium for the first week and then the 0.02% calcium containing diet for the next three weeks of the study. The rats were then fed 0.47% calcium containing diet for one week before switching back to 0.02% calcium containing diet for the remainder of the study. During the second week back on 0.02% calcium containing diet, the animals were tail-bled (baseline serum calcium) and then dose administration was initiated. All doses were administered intraperitoneally in 100 microliters of propylene glycol. Four consecutive doses were given approximately 24 hours apart. Twenty-four hours after the last dose, blood was collected from the tail artery of each experimental animal. […] The level of calcium was determined by diluting the serum into 0.1% lanthum chloride and measuring the absorbance on an atomic absorption spectrophotometer (Perkin Elmer Model 3110, Shelton, Conn.).

[3] = molecular target: T1, 1α,25-dihydroxyvitamin D pig intestinal nuclear receptor (Rattus norvegicus, UniProt P13053); assay: Competitive VDR binding; conditions: competition with 3H-1,25(OH)2D3; FIG. 1
T1 construct: Full-length recombinant rat receptor was expressed in E. coli; His tag (C); made in house; host or cells: E. coli BL21 (DE3) Codon Plus RIL
T1 sequence (P13053 1-423): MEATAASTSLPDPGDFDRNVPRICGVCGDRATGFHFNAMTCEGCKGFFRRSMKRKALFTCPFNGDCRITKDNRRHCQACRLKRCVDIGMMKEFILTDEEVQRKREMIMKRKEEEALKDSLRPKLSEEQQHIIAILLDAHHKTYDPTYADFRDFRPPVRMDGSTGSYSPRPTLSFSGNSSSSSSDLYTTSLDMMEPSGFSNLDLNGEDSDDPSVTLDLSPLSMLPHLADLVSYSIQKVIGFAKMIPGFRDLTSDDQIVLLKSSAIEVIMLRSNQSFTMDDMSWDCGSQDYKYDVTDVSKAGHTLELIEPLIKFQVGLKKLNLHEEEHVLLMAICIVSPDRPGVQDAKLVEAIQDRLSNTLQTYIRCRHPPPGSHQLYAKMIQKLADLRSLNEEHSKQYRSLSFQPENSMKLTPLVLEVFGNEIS
Description: Competitive binding of the analogs to the porcine intestinal receptor was carried out by the method described by Dame et al (Biochemistry 25, 4523-4534, 1986).
Full-length recombinant rat receptor was expressed in E. coli BL21 (DE3) Codon Plus RIL cells and purified using two different column chromatography systems. The first system was a nickel affinity resin that utilized the C-terminal histidine tag on this protein. The protein that was eluted from this resin was further purified using ion exchange chromatography (S-Sepharose Fast Flow). Aliquots of the purified protein were quick frozen in liquid nitrogen and stored at −80° C. until use. […]
Unlabeled ligands were dissolved in ethanol and the concentrations determined using UV spectrophotometry. […]
Radiolabeled and unlabeled ligands were added to 100 mcl of the diluted protein, mixed and incubated overnight on ice to reach binding equilibrium. […] Total binding was determined from the tubes containing only radiolabeled ligand. The percentage of competition was calculated by subtracting the number of dpm remaining in the hydroxylapatite pellet from the total number of dpm bound, dividing by the total number of dpm bound and multiplying by one hundred. Duplicate tubes were prepared and analyzed for each test concentration.

[4] = Intestinal calcium transport (everted gut sac); format: in vivo, rat; conditions: male Sprague-Dawley rats, low calcium diet, four intraperitoneal doses; FIG. 4
Excerpt: as §1, with “diet,” for “diet, the animals were tail-bled (baseline serum calcium) and then”, “began.” for “was initiated.”, “apart.” for “apart. Twenty-four hours after the last dose, blood was collected from the tail artery of each experimental animal.”, “Conn.). Twenty-four hours after the last dose, intestinal calcium transport was assessed ex vivo using the everted gut sac technique.” for “Conn.).”

[5] = tested on: 24-hydroxylase (24OHase) gene promoter in ROS 17/2.8 (bone) cells; assay: Transcription activation, 24-hydroxylase promoter luciferase reporter; format: cell-based; conditions: luciferase 16 h after dosing, FIG. 3
Description: Transcriptional activity was measured in ROS 17/2.8 (bone) cells that were stably transfected with a 24-hydroxylase (24OHase) gene promoter upstream of a luciferase reporter gene (Arbour et al., 1998). Cells were given a range of doses. Sixteen hours after dosing the cells were harvested and luciferase activities were measured using a luminometer.
“RLU” in FIG. 3 refers to relative luciferase units.

activity in binding to the 1α,25-dihydroxyvitamin D3 receptor [3]	SMILES	percent of HL-60 cells induced to differentiate [1]	ability to mobilize calcium from bone compared with 1α,25-dihydroxyvitamin D3 [2]	intestinal calcium transport activity compared with 1α,25-dihydroxyvitamin D3 [4]	transcriptional activity compared with 1α,25-dihydroxyvitamin D3 [5]	potency in promoting differentiation of leukemia cells compared with 1α,25-dihydroxyvitamin D3 ([1]; HL-60 cells)
–	C=C1/C(=C\C=C2/CCC[C@]3(C)[C@@H]([C@H](C)CCCC(C)(C)O)CC[C@@H]23)C[C@@H](O)C[C@@H]1O [C001, 1α,25-dihydroxyvitamin D3, reference compound]	~90%	–	–	–	–
very active	C=C1[C@H](O)CC(=C/C=C2\CCC[C@@H]3C([C@@H](C)CCCC(C)(C)O)CC[C@@H]23)C[C@H]1O (stereo partly drawn) [DP035, (20S)-2-methylene-18,19-dinor-1α,25-dihydroxyvitamin D3]	the same degree of differentiation	clearly not as active	as active as	higher transcriptional activity	more potent
